# Data from patent publication US8197864B2, “Preparation, process and a regenerative method and technique for prevention, treatment and glycemic control of diabetes mellitus” (Arjuna Natural Extracts, priority 2004, dated 2012).
# Test system: normal rats
# Experiment: Hypoglycemic activity of fractions on blood sugar level in fasted normal rats
# Format: in vivo, Sprague dawley rats
# Conditions: glybenclamide 1 mg/kg, metformin 150 mg/kg; for blood sugar level, 1 hr: 1 hr after single oral dose: fractions 100 mg/kg; for blood sugar level, 3 hr: 3 hr after single oral dose: fractions 100 mg/kg; for blood sugar level, 5 hr: 5 hr after single oral dose: fractions 100 mg/kg; for blood sugar level, Fasting: fasting value before administration, single oral dose: fractions 100 mg/kg; for effect on blood glucose level (in words): single oral dose after 4 hours of fasting: fractions 100 mg/kg
# Experimental: Activity of different extracts were tested using Sprague dawley rats of either sex aged 3 months weighing 180-200 g. After 3-4 hrs of fasting the rats were divided into 7 groups of 6 in each, one group kept as control and 4 groups were given different fractions (Fraction I, Fraction III, Fraction IV and Fraction V) of extract in the dose of 100 mg/kg. Sixth and seventh groups were given standard drugs glybenclamide (1 mg/kg) and metformin (150 mg/kg) respectively.
# (See Table II, graph I) The extract/drug was administered orally (single dose) after 4 hours of fasting. […] In FIG. 2, the graph provides blood glucose level in normal rats in mg/dl measured over a duration of 5 hours. The normal rats were fed with different fractions of the extract after four hours of fasting.
compound,measurement,value
"CN(C)C(=N)N=C(N)N [Metformin, metformin]","blood sugar level, 1 hr",70.6 ± 3.0 mg/dL
same,"blood sugar level, 3 hr",68.3 ± 2.6 mg/dL
same,"blood sugar level, 5 hr",*61.5 ± 3.0 mg/dl
same,"blood sugar level, Fasting",76.6 ± 4.1 mg/dL
same,effect on blood glucose level (in words),significant (p<0.05) decrease in blood glucose level in the fifth hour
"COc1ccc(Cl)cc1C(=O)NCCc1ccc(S(=O)(=O)NC(=O)NC2CCCCC2)cc1 [Glybenclamide, glybenclamide]","blood sugar level, 1 hr",*58.8 ± 9.8 mg/dl
same,"blood sugar level, 3 hr",*43.3 ± 8.2 mg/dl
same,"blood sugar level, 5 hr",*43.2 ± 5.8 mg/dl
same,"blood sugar level, Fasting",72.6 ± 8.6 mg/dL
same,effect on blood glucose level (in words),significant (p<0.05) decrease in blood glucose level in the first hour
